Source: US20260042755A1, “GPR6 INVERSE AGONISTS” (MapLight Therapeutics, Inc., priority 2022, published 2026)

Columns and labels:
[1] = molecular target: T1, GPR3 (Homo sapiens, UniProt P46089); test: GPR3 antagonist functional cAMP assay (LANCE Ultra cAMP TR-FRET, CHO cells stably expressing GPR3); format: cell-based; details: CHO cells stably expressing GPR3, cAMP assay (Example 24)
T1 construct: expressed in transfected cells; host or cells: CHO cells
Method in brief: (§1)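 cAMP quantified by TR-FRET immunoassay after 45 min compound treatment at 37° C of CHO cells stably expressing GPR3 or GPR6, in PDE-inhibitor (Ro 20-1724, 150 μM) buffer with 0.1% BSA. Data scaled between DMSO (0%) and reference compounds (100%); antagonist IC50 by 4-parameter logistic fit.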

[2] = molecular target: T2, GPR6 (Homo sapiens, UniProt P46095); test: GPR6 antagonist functional cAMP assay (LANCE Ultra cAMP TR-FRET, CHO cells stably expressing GPR6); format: cell-based; details: CHO cells stably expressing GPR6, cAMP assay (Example 24)
T2 construct: expressed in transfected cells; host or cells: CHO cells
T2 sequence (P46095 whole entry): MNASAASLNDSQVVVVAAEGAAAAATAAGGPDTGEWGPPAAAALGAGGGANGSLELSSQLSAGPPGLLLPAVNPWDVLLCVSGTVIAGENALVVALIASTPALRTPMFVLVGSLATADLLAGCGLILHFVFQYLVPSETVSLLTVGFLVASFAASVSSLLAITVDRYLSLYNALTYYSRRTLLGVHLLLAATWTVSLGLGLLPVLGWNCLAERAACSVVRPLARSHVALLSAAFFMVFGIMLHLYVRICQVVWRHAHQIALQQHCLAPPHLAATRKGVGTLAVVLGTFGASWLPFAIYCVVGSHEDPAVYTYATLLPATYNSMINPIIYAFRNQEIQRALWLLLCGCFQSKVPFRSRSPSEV
Method in brief: as §1

T1 sequence (P46089 whole entry, species assumed): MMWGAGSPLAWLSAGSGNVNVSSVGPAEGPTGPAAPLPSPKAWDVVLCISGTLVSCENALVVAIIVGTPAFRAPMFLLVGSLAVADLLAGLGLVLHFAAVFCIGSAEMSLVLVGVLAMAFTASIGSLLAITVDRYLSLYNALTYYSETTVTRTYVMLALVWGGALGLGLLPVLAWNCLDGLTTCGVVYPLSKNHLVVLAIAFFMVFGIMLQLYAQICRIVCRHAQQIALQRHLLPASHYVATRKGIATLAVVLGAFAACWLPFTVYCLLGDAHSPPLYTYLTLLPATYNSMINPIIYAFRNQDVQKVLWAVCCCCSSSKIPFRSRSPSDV

Row | IC50 [1] [nM] | IC50 [2] [nM] | SMILES
1 | 1000 to 30000 | 1000 to 30000 | O=S(=O)(C1COC1)N1CCc2nc(N3CCC(Oc4ccc(F)cc4F)CC3)c(-c3cnn(C4CCCCO4)c3)nc2C1 (stereo not drawn) [Compound 151, 4-(2,4-difluorophenoxy)-1-{3-[1-(oxan-2-yl)-1H-pyrazol-4-yl]-6-(oxetane-3-sulfonyl)-5H,6H,7H,8H-pyrido[3,4-b]pyrazin-2-yl}piperidine]
2 | 1000 to 30000 | 1000 to 30000 | CC(=O)N1CCc2nc(N3CCC(Oc4ccc(F)cc4F)CC3)c(-c3cncc(O)c3)nc2C1 [Compound 158, 1-{2-[4-(2,4-difluorophenoxy)piperidin-1-yl]-3-(5-hydroxypyridin-3-yl)-5H,6H,7H,8H-pyrido[3,4-b]pyrazin-6-yl}ethan-1-one]
3 | 1000 to 30000 | 100 to 1000 | COc1ncc(-c2nc3c(nc2N2CCC(Oc4ccc(F)cc4F)CC2)CCN(C(C)=O)C3)cc1F [Compound 160, 1-{2-[4-(2,4-difluorophenoxy)piperidin-1-yl]-3-(5-fluoro-6-methoxypyridin-3-yl)-5H,6H,7H,8H-pyrido[3,4-b]pyrazin-6-yl}ethan-1-one]
4 | 1000 to 30000 | 1000 to 30000 | CC(=O)N1CCc2nc(N3CCC(Oc4ccc(F)cc4F)CC3)c(-c3cnn(C4CN(C(C)=O)C4)c3)nc2C1 [Compound 163, 1-[3-(4-{6-acetyl-2-[4-(2,4-difluorophenoxy)piperidin-1-yl]-5H,6H,7H,8H-pyrido[3,4-b]pyrazin-3-yl}-1H-pyrazol-1-yl)azetidin-1-yl]ethan-1-one]
5 | 1000 to 30000 | 100 to 1000 | CC(=O)N1CCc2nc(N3CCC(Oc4ccc(F)cc4F)CC3)c(-c3cnn(C4CC4)c3)nc2C1 [Compound 164]
6 | 1000 to 30000 | < 100 | CC(=O)N1CCc2nc(N3CCC(Oc4ccc(F)cc4F)CC3)c(-c3cnn(C(C)C)c3)nc2C1 [Compound 165, 1-{2-[4-(2,4-difluorophenoxy)piperidin-1-yl]-3-[1-(propan-2-yl)-1H-pyrazol-4-yl]-5H,6H,7H,8H-pyrido[3,4-b]pyrazin-6-yl}ethan-1-one]
7 | 1000 to 30000 | 100 to 1000 | CC(=O)N1CCc2nc(N3CCC(Oc4ccc(F)cc4F)CC3)c(-c3cccc(-c4cn[nH]c4)n3)nc2C1 [Compound 166, 1-{2-[4-(2,4-difluorophenoxy)piperidin-1-yl]-3-[6-(1H-pyrazol-4-yl)pyridin-2-yl]-5H,6H,7H,8H-pyrido[3,4-b]pyrazin-6-yl}ethan-1-one]
8 | 1000 to 30000 | 1000 to 30000 | CC(=O)N1CCc2nc(-c3cccc(=O)[nH]3)c(N3CCC(Oc4ccc(F)cc4F)CC3)nc2C1 [Compound 167, 6-{6-acetyl-3-[4-(2,4-difluorophenoxy)piperidin-1-yl]-5H,6H,7H,8H-pyrido[3,4-b]pyrazin-2-yl}-1,2-dihydropyridin-2-one]
9 | 1000 to 30000 | 1000 to 30000 | CN1CCc2nc(N3CCC(Oc4ccc(F)cc4F)CC3)c(-c3cnn(C4CCCCO4)c3)nc2C1 (stereo not drawn) [Compound 169, 4-(2,4-difluorophenoxy)-1-{6-methyl-3-[1-(oxan-2-yl)-1H-pyrazol-4-yl]-5H,6H,7H,8H-pyrido[3,4-b]pyrazin-2-yl}piperidine]
10 | 1000 to 30000 | 100 to 1000 | COC(C)(C)C(=O)N1CCc2nc(N3CCC(Oc4ccc(F)cc4F)CC3)c(-c3cn[nH]c3)nc2C1 [Compound 174, 1-{2-[4-(2,4-difluorophenoxy)piperidin-1-yl]-3-(1H-pyrazol-4-yl)-5H,6H,7H,8H-pyrido[3,4-b]pyrazin-6-yl}-2-methoxy-2-methylpropan-1-one]
11 | 1000 to 30000 | 100 to 1000 | CC(C)S(=O)(=O)N1CCc2nc(N3CCC(Oc4ccc(F)cc4F)CC3)c(-c3cnn(C4CCCCO4)c3)nc2C1 (stereo not drawn) [Compound 176, 4-(2,4-difluorophenoxy)-1-{3-[1-(oxan-2-yl)-1H-pyrazol-4-yl]-6-(propane-2-sulfonyl)-5H,6H,7H,8H-pyrido[3,4-b]pyrazin-2-yl}piperidine]

Further lines, the molecule ahead of its results:

Row | SMILES | IC50 [1] [nM] | IC50 [2] [nM]
12 | CC(C)(C)OC(=O)N1CC(C(=O)N2CCc3nc(N4CCC(Oc5ccc(F)cc5F)CC4)c(-c4cnn(C5CCCCO5)c4)nc3C2)C1 (stereo not drawn) [Compound 152, tert-butyl 3-{2-[4-(2,4-difluorophenoxy)piperidin-1-yl]-3-[1-(oxan-2-yl)-1H-pyrazol-4-yl]-5H,6H,7H,8H-pyrido[3,4-b]pyrazine-6-carbonyl}azetidine-1-carboxylate] | 1000 to 30000 | 1000 to 30000
13 | O=C(C1CNC1)N1CCc2nc(N3CCC(Oc4ccc(F)cc4F)CC3)c(-c3cn[nH]c3)nc2C1 [Compound 153, 1-[6-(azetidine-3-carbonyl)-3-(1H-pyrazol-4-yl)-5H,6H,7H,8H-pyrido[3,4-b]pyrazin-2-yl]-4-(2,4-difluorophenoxy)piperidine] | 1000 to 30000 | 1000 to 30000
14 | COC(=O)N1CCc2nc(N3CCC(Oc4ccc(F)cc4F)CC3)c(-c3cn[nH]c3)nc2C1 [Compound 154, methyl 2-[4-(2,4-difluorophenoxy)piperidin-1-yl]-3-(1H-pyrazol-4-yl)-5H,6H,7H,8H-pyrido[3,4-b]pyrazine-6-carboxylate] | 1000 to 30000 | < 100
15 | CC(C)OC(=O)N1CCc2nc(N3CCC(Oc4ccc(F)cc4F)CC3)c(-c3cnn(C4CCCCO4)c3)nc2C1 (stereo not drawn) [Compound 156, propan-2-yl 2-[4-(2,4-difluorophenoxy)piperidin-1-yl]-3-[1-(oxan-2-yl)-1H-pyrazol-4-yl]-5H,6H,7H,8H-pyrido[3,4-b]pyrazine-6-carboxylate] | 1000 to 30000 | 1000 to 30000
16 | CC(=O)N1CCc2nc(N3CCC(Oc4ccc(F)cc4F)CC3)c(-c3ccc[nH]c3=O)nc2C1 [Compound 157, 3-{6-acetyl-2-[4-(2,4-difluorophenoxy)piperidin-1-yl]-5H,6H,7H,8H-pyrido[3,4-b]pyrazin-3-yl}-1,2-dihydropyridin-2-one] | ≥ 30000 | ≥ 30000
17 | COc1cncc(-c2nc3cnc(Cl)cc3nc2N2CCN(Cc3ccc(F)cc3F)CC2)n1 [Compound 159, 2-(7-chloro-2-{4-[(2,4-difluorophenyl)methyl]piperazin-1-yl}pyrido[3,4-b]pyrazin-3-yl)-6-methoxypyrazine] | 1000 to 30000 | 1000 to 30000
18 | COCc1cccc(-c2nc3c(nc2N2CCC(Oc4ccc(F)cc4F)CC2)CCN(C(C)=O)C3)n1 [Compound 161, 1-{2-[4-(2,4-difluorophenoxy)piperidin-1-yl]-3-[6-(methoxymethyl)pyridin-2-yl]-5H,6H,7H,8H-pyrido[3,4-b]pyrazin-6-yl}ethan-1-one] | 1000 to 30000 | 1000 to 30000
19 | CC(=O)N1CCc2nc(N3CCC(Oc4ccc(F)cc4F)CC3)c(-c3cccc(N)n3)nc2C1 [Compound 168, 1-[3-(6-aminopyridin-2-yl)-2-[4-(2,4-difluorophenoxy)piperidin-1-yl]-5H,6H,7H,8H-pyrido[3,4-b]pyrazin-6-yl]ethan-1-one] | 100 to 1000 | < 100
20 | CCN1CCc2nc(N3CCC(Oc4ccc(F)cc4F)CC3)c(-c3cn[nH]c3)nc2C1 [Compound 170, 4-(2,4-difluorophenoxy)-1-[6-ethyl-3-(1H-pyrazol-4-yl)-5H,6H,7H,8H-pyrido[3,4-b]pyrazin-2-yl]piperidine] | 1000 to 30000 | 100 to 1000
21 | N#CN1CCc2nc(N3CCC(Oc4ccc(F)cc4F)CC3)c(-c3cn[nH]c3)nc2C1 [Compound 171, 2-[4-(2,4-difluorophenoxy)piperidin-1-yl]-3-(1H-pyrazol-4-yl)-5H,6H,7H,8H-pyrido[3,4-b]pyrazine-6-carbonitrile] | 1000 to 30000 | < 100
22 | O=C(C1COC1)N1CCc2nc(N3CCC(Oc4ccc(F)cc4F)CC3)c(-c3cnn(C4CCCCO4)c3)nc2C1 (stereo not drawn) [Compound 172, 4-(2,4-difluorophenoxy)-1-{3-[1-(oxan-2-yl)-1H-pyrazol-4-yl]-6-(oxetane-3-carbonyl)-5H,6H,7H,8H-pyrido[3,4-b]pyrazin-2-yl}piperidine] | 1000 to 30000 | 100 to 1000
23 | COC(C)(C)C(=O)N1CCc2nc(N3CCC(Oc4ccc(F)cc4F)CC3)c(-c3cnn(C4CCCCO4)c3)nc2C1 (stereo not drawn) [Compound 173, 1-{2-[4-(2,4-difluorophenoxy)piperidin-1-yl]-3-[1-(oxan-2-yl)-1H-pyrazol-4-yl]-5H,6H,7H,8H-pyrido[3,4-b]pyrazin-6-yl}-2-methoxy-2-methylpropan-1-one] | 1000 to 30000 | 1000 to 30000
24 | CC(C)(O)C(=O)N1CCc2nc(N3CCC(Oc4ccc(F)cc4F)CC3)c(-c3cn[nH]c3)nc2C1 [Compound 175, 1-{2-[4-(2,4-difluorophenoxy)piperidin-1-yl]-3-(1H-pyrazol-4-yl)-5H,6H,7H,8H-pyrido[3,4-b]pyrazin-6-yl}-2-hydroxy-2-methylpropan-1-one] | 1000 to 30000 | 100 to 1000
25 | CCS(=O)(=O)N1CCc2nc(N3CCC(Oc4ccc(F)cc4F)CC3)c(-c3cnn(C4CCCCO4)c3)nc2C1 (stereo not drawn) [Compound 177, 4-(2,4-difluorophenoxy)-1-[6-(ethanesulfonyl)-3-[1-(oxan-2-yl)-1H-pyrazol-4-yl]-5H,6H,7H,8H-pyrido[3,4-b]pyrazin-2-yl]piperidine] | 1000 to 30000 | 100 to 1000
26 | O=C(C1CCCN1)N1CCc2nc(N3CCC(Oc4ccc(F)cc4F)CC3)c(-c3cn[nH]c3)nc2C1 (stereo not drawn) [Compound 178, 4-(2,4-difluorophenoxy)-1-[3-(1H-pyrazol-4-yl)-6-(pyrrolidine-2-carbonyl)-5H,6H,7H,8H-pyrido[3,4-b]pyrazin-2-yl]piperidine] | 1000 to 30000 | 100 to 1000
27 | O=C(CO)N1CCc2nc(N3CCC(Oc4ccc(F)cc4F)CC3)c(-c3cn[nH]c3)nc2C1 [Compound 179, 1-{2-[4-(2,4-difluorophenoxy)piperidin-1-yl]-3-(1H-pyrazol-4-yl)-5H,6H,7H,8H-pyrido[3,4-b]pyrazin-6-yl}-2-hydroxyethan-1-one] | 1000 to 30000 | < 100
